pIC50: −log10 of the molar value. Starred links: 1 amine or outer side, 2 acyl side, 3 side chain; linkers in the order of their positions; H or OH if unused. Non-standard residues stand in square brackets, D forms with d. γGlu = O=C(O)[C@H](CCC(=O)[*:2])N[*:1]
What was measured:
[1] = test system: alanine aminotransferase (ALT) in plasma / liver necrosis; test: Concanavalin A-induced liver inflammation in C57BL/6 mice; type: in vivo; conditions: ConA dose 180 μg/mouse
Experimental: Six groups of C57BL/6 female mice (7-8 weeks old) containing 6 mice in each group were injected i.p. with different peptide on days −3, −2, −1 at a dose of 50 mg/kg or with PBS alone. On day zero all the mice were injected i.v. with 250 μg/mouse of Con A and 45 min. later they were injected i.p. with 150 mg/kg of each peptide or PBS.
Eight hours after Con A injection mice were bled into heparinized tubes (approx. 150 ul of blood from each mouse) and the levels of alanine aminotransferase (ALT) was measured in the plasma.
One day later the mice were sacrificed and their livers were placed in 4% formalin and sent for pathological examination.
Next, peptide DY-66 was examined and compared to N-acetylcysteine (NAC), CB3 and CB4. The compounds were tested according to the procedure described above. ConA dose was 180 μg/mouse.
FIG. 8 presents the change in ALT levels (%) for each of the tested compounds compared to PBS treatment (i.e., the ratio between ALT levels in samples obtained from mice treated with a tested compound and ALT levels in samples obtained from PBS-treated mice)

[2] = test system: HaCaT cells; test: Hydrogen peroxide-induced HaCaT keratinocyte cytotoxicity (MTT); type: cell-based; conditions: for protection of cell viability after hydrogen peroxide exposure (in words): 90 μM hydrogen peroxide 30 min, MTT after 72 hours
Experimental: All five peptides were examined in this Example, and their activity was compared to the known CB3 peptide. HaCaT cells were seeded in 96-well plate at a concentration of 10×10^4 cells/ml for 24 hours. Then cells were incubated with the peptides at the indicated concentrations for 2.5 hours followed by washing with PBS and incubation with 90 μM hydrogen peroxide (without peptide) for 30 minutes. Cells were washed with PBS and incubated with culture medium containing peptide for 72 hours. Cell viability was tested by MTT. The effect of the peptides on cell viability was performed similarly without hydrogen peroxide exposure.

[3] = test system: JNK (c-Jun N-terminal kinases); test: Inhibition of oxidative stress (auranofin)-induced JNK phosphorylation in SH-SY5Y cells; type: cell-based, Human; conditions: auranofin 5 μM
Experimental: (§1) Human neuroblastoma SH-SY5Y cells were maintained in Dulbecco's modified Eagle's medium (DMEM, Invitrogen) supplemented with 10% fetal bovine serum (Invitrogen), 100 μg/ml streptomycin and 100 U/ml penicillin G (Gibco). Cells were plated at a density of 6.25×10^4/cm^2 and incubated for 24 hours, after which they were exposed to different treatments.
(§2) SH-SY5Y cells were plated on 96-well plates and treated with Auranofin (AuF) (5 μM) for 30 min. Then the cells were washed with PBS and treated with either one of the peptides at the indicated concentrations. Twenty-four hours later, the cells were fixed with glutaraldehyde in final concentration of 0.5% for 10 min. Cells were washed 3 times with DDW dried over night, and washed once with borate buffer (0.1M, pH 8.5). The fixed cells were stained with 200 μl of 1% methylene blue dissolved in borate buffer for 1 hour. After extensive washing and drying, the color was extracted with 200 μl of 0.1 M HCl for 1 h at 37° C. and absorbance was read in spectrophotometer at 630 nm.
(§3) Twenty to thirty micrograms of protein samples were loaded on 10-12% SDS-PAGE gels. The proteins were then transferred electrophoretically to nitrocellulose (Whatman, Germany). The blots were blocked by incubation for 1 h at room temperature (RT) in TBS-T (25 mM Tris-HCl pH 7.4, 0.9% NaCl and 0.02% Tween-20) with 4% Difco skim milk (BD, USA), and incubated over-night at 4° C. with the primary antibody: pERK1/2 (Thr 202/Tyr204), mouse mAb, (1:6,000); p-SAPK/JNK (Thr183/Tyr185), rabbit mAb; SAPK/JNK, mouse mAb; p-p38MAP Kinase (Thr180/Tyr182), rabbit mAb; cleaved caspase 3, rabbit mAb. All antibodies were from Cell Signaling Tech. USA, used at 1:1000. Purified b Catenin, mouse mAb, (1:10,000; BD Transduction Laboratories, USA) diluted in 5% BSA, 0.04% Azide in TBS-T. Proteins were detected with Anti-Mouse or Anti-Rabbit IgG-HRP linked antibody (1:10,000; Cell Signaling, Tech. USA).

[4] = test system: malondialdehyde (MDA) in lung tissue; test: MDA (lipid peroxidation) in lung, zymosan-induced inflammation; type: in vivo, mice; conditions: i.p. 3x50 mg/kg before, 120 mg/kg 30 min before and 5 h after zymosan; 24 h; p<0.05
Experimental: Male BALB/c mice were randomly allocated into the following experimental groups (8 mice for each group):
The peptides were administered by an intraperitoneal (i.p.) route of administration as follows: • The first dose (50 mg per kg) was given 3 days before the zymosan injection. • The second dose (50 mg per kg) was given 2 days before the zymosan injection. • The third dose (50 mg per kg) was given 1 day before the zymosan injection. • The fourth dose (120 mg per kg) was given 30 minutes before the zymosan injection. • The fifth dose (120 mg per kg) was given 5 hours after the zymosan injection.
The peptides were formulated in D5W (5% dextrose in water, “D5W”). The vehicle control was D5W. At 24 hours after administration of zymosan, animals were euthanized and assessed for inflammation by an MDA (malondialdehyde) analysis of lung tissue. All the materials and drugs (apart from the peptides) were obtained from Sigma, Inc.
Malondialdehyde (MDA) formation was used to quantify lipid peroxidation, measured as thiobarbituric acid-reactive material. […] After cooling to room temperature, samples were cleared by centrifugation at 10,000 g for 10 min and absorbance was measured at 532 nm using 1,1,3,3-tetramethoxypropane as an external standard. The level of lipid peroxides was expressed as nM MDA/mg protein.

[5] = Metal chelation: copper binding by mass spectra (ESI); conditions: 0.83 mM peptide, 1.66 mM CuSO4, 1 hour room temperature
Experimental: (§4) All five peptides were examined for their ability to bind copper and ferric ions. 0.83 mM of each peptide were mixed with 1.66 mM of either FeCL3 or CuSO4. The mixtures were incubated for 1 hour at room temperature and further kept at ° 4 C until analysis. Samples were analyzed by mass spectra (ESI).

[6] = test system: HaCaT cells; test: UVB-induced cytotoxicity in HaCaT cells (MTT); type: cell-based; conditions: UVB 0.05 J/cm^2; MTT after 72 hours
Experimental: HaCaT cells were seeded in 96-wells plate (10×10^4/ml) and incubated in 37° C., 6% CO2 for 24 hours. Cells were incubated with the peptides at the indicated concentrations for 2.5 hours and washed (PBS). Then 100 μl PBS were added to each well followed by UVB irradiation (0.05 J/cm^2). Cells were washed with PBS and incubated with culture medium (DMEM, 100 μl) containing the peptides. MTT assay was carried out after 72 hours.

[7] = test system: anti-OVA serum IgE; test: Ovalbumin-induced hypersensitivity: serum anti-OVA IgE; type: in vivo, mice; conditions: 125 mg/kg i.p. on days 13, 14, 15; blood day 16
Experimental: (§5) Male BALB/c mice (6-8 weeks old) were housed under specific pathogen-free conditions and maintained on a 12-hour light/dark cycle, with food and water ad libitum. All materials and drugs were obtained from Sigma, Inc.
(§6) Mice in Groups A, B, C, and E (n=10 per group) were sensitized with intraperitoneal (i.p.) 200 μl of sterile PBS containing 100 μg ovalbumin (OVA) and 1.6 mg alum on days 0 and 7, and challenged with intraperitoneal (i.p.) 200 μl of sterile PBS containing 10 μg ovalbumin (OVA) on day 14 in order to induce an experimental model of allergic peritonitis. Mice in Group F (n=10) were injected with intraperitoneal (i.p) 200 μl sterile PBS (“sham” group, no OVA and no Alum).
(§7) Mice in Groups A, B, and C, were treated with 150 μl of sterile PBS containing peptides DY-66, DY-65 and DY-70, respectively, at a dose of 125 mg/kg on days 13, 14, and 15 via an i.p. route of administration.
(§8) Mice in Groups E and F were treated with 150 μl of sterile PBS on days 13, 14, and 15 via an i.p. route of administration. On day 14 the test articles (or PBS vehicle) were injected 30 minutes before injecting the OVA.
Blood taken on day 16 was tested for 1) serum anti-OVA IgE, 2) white blood cell count and differential (including absolute and percentage of eosinophils count). Serum was frozen at −80° C. for future optional blood tests.

[8] = Metal chelation: ferric ion binding by mass spectra (ESI); conditions: 0.83 mM peptide, 1.66 mM FeCL3, 1 hour room temperature
Experimental: as §4

[9] = test system: IkappaBalpha; test: Cytoplasmic stability of I-kappaBalpha in lung, zymosan-induced inflammation; type: in vivo, mice; conditions: lung tissue, 24 hours after zymosan
Experimental: Male BALB/c mice were randomly allocated into the following experimental groups:
The peptides were administered by an intraperitoneal (i.p.) route of administration as described in Example 3.
The peptides were formulated in D5W as described in Example 3. The vehicle control was D5W.
At 24 hours after administration of zymosan, animals were euthanized and assessed for inflammation by an NF-κB analysis of lung tissue.
Tissues were homogenized and nuclear extracts prepared via centrifugation. ELISA for IkappaBalpha was performed, using a series of standards in order to define absolute concentrations.

[10] = test system: p38 MAP Kinase; test: Inhibition of oxidative stress (auranofin)-induced p38 phosphorylation in SH-SY5Y cells; type: cell-based, Human; conditions: auranofin 5 μM
Experimental: as §1, §2, §3

[11] = test system: cellularity of the peritoneal exudates; test: Ovalbumin-induced hypersensitivity (allergic peritonitis): peritoneal cellularity; type: in vivo, mice; conditions: 125 mg/kg i.p. on days 13, 14, 15
Experimental: as §5, §6, §7, §8

[12] = test system: carrageenan-induced hind paw swelling; test: Carrageenan-induced hind paw swelling; type: in vivo, mice; conditions: 150 mg/kg i.p. 30 min prior to carrageenan
Experimental: The above new five peptides were examined for anti-inflammatory activity, and their activity was compared to that of peptide CB3. Male ICR mice received an i.p. administration of each of the tested peptide (150 mg/kg) 30 min prior to the injection of carrageenan into the sub-plantar area of both of the animal's hind paws. Carrageenan was dissolved in water at concentration of 3 mg/ml and injected at a volume of 50 μl. Hind paw thickness was measured by Mitutoyo® micrometer before carrageenan injection and afterward at intervals of 1 hour between each measurement. Swelling was calculated as the difference between the thickness of the hind paw measured at each time interval and its size at time 0 (before carrageenan injection). n=6 foot pads (3 animals) for each group.

| Compound | ALT level compared to PBS-treated mice (in words) [1] | protection of cell viability after hydrogen peroxide exposure (in words) [2] | pIC50 [3] | pIC50 [10] | hind paw swelling compared to control (in words) [12] | also measured |
| --- | --- | --- | --- | --- | --- | --- |
| CC(=O)N[C@@H](CS)C(=O)O [NAC, N-acetylcysteine, reference compound] | did not induce a significant change in ALT level | – | – | – | – | – |
| N-acetyl-Cys-Gly-Pro-Cys-NH2 (Ac-CGPC-NH2; cysteine pairing not given here) [CB4, reference compound] | highly increased ALT level | – | – | – | – | – |
| N-acetyl-Cys-Met-Lys-Cys-NH2 (Ac-CMKC-NH2; cysteine pairing not given here) [DY-70] | – | fully protected the cells from hydrogen peroxide | 4.66 | 4.65 | – | effect on zymosan-induced elevation of MDA in lung tissue (in words) [4]: inhibited the elevation in MDA concentration; copper binding (in words) [5]: low degree; protection against UVB-induced cytotoxicity (in words) [6]: protective effect at low concentrations; effect on OVA-induced elevation of anti-OVA serum IgE titer (in words) [7]: significantly reduced the elevation; rank order of reduction of anti-OVA serum IgE titer [7]: DY-65>DY-70>DY-66; FeCl binding (in words) [8]: low degree; rank order of efficacy on cytoplasmic IkappaBalpha [9]: DY-70>DY-65>DY-66; effect on OVA-induced elevation of peritoneal exudate cellularity (in words) [11]: significantly reduced the elevation; rank order of reduction of peritoneal exudate cellularity [11]: DY-65>DY-70>DY-66 |
| N-acetyl-Cys-Pro-Cys-NH2 (Ac-Cys-Pro-Cys-NH2; cysteine pairing not given here) [CB3, reference compound] | highly increased ALT level | slightly elevated cell viability | – | – | did not show a significant reduction | – |
| N-acetyl-Cys-γGlu-Cys-Cys-NH2 (Ac-C[γGlu]CC-NH2; cysteine pairing not given here) [DY-71] | – | slightly elevated cell viability | 4.08 | 4.33 | – | – |
| N-acetyl-Cys-γGlu-Cys-NH2 (Ac-Cys-[γGlu]-Cys-NH2; cysteine pairing not given here) [DY-67] | – | – | 4.17 | 4.44 | Reduced swelling compared to control | increase in cell viability ([2]; concentrations of 1-10 μM): about 45% |
